According to US5849729A, “Use of hydrolyzed cocoa butter for percutaneous absorption” (Hershey Foods Corporation, priority 1995, dated 1998):
Values joined by “and” are separate entries in the source; they are usually repeats but may differ in a detail not shown here. Identical values can stand only once. “Also recorded” adds a separate entry of the source. Like-named read-outs stand apart in the source and are kept apart here.

Key:
[1] = cited from earlier work
[2] = In-vitro percutaneous absorption of retinoic acid and triamcinolone acetonide from two cocoa butter vehicles (Franz cells, 48 h); settings: for Penet (Total Penetration) / % Abs (% Absorbed) / Total Penetration / % Absorbed / total absorption: 48 h; for % Abs (% Absorbed) / % Absorbed / total absorption: percent of applied dose
Description: The objective of this study was to measure the permeation of retinoic acid and triamcinolone acetonide through human skin in-vitro from two cocoa butter vehicles.
Two cocoa butter vehicles supplied by Hershey Foods Corporation were utilized: (1) pure cocoa butter and (2) partially hydrolyzed cocoa butter emulsion. Radioactive [11,12-^3 H] [retinoic acid (NET 920, Lot 2930-067, specific activity 1 mCi/ml) and [6,7-^3 H]-triamcinolone acetonide (NET 470, Lot 2904-170, specific activity 1 mCi/ml) were obtained from Dupont-New England Nuclear Corporation, Boston, Mass.
Each of the two cocoa butter vehicles was spiked separately with ^3 H-retinoic acid and ^3 H-Triamcinolone acetonide to give a total of four radioactive formulations for study. This was done by adding 25 μl (containing 25 μCi) of each tracer solution to approximately 1 gram of each vehicle and mixing with the tip of the dispensing micropipette. The pure cocoa butter vehicle was liquified by holding it under warm tap water prior to spiking. This was not done with the partially hydrolyzed cocoa butter emulsion. Neither formulation was used for three days after spiking to allow for diffusional mixing to take place. Final radioactive concentrations of each formulation were: […]
Human trunk skin without obvious signs of disease was used throughout. It was obtained within 24 hours of death, dermatomed to a thickness of approximately 0.25 mm, cryopreserved and sealed in water vapor-impermeableplastic bags. It was stored at -70° C. until the day of use then thawed by placing the bag in 37° C. water.
Skin from a single donor was cut into multiple sections large enough to fit on 0.8 cm^2 Franz cells. The dermal chamber was filled with isotonic saline, pH 7.4, into which a small magnetic stirring bar was placed. The epidermal chamber was left open to the ambient laboratory environment, approximately 22° C. and 40-60% RH. The cells were placed in a diffusion apparatus in which the dermal receptor solution was stirred magnetically at 600 RPM and its temperature maintained at 37° C.
To assure the integrity of each skin section, its permeability to tritiated water was determined before application of the test formulations. Following a brief (0.5-1 hour) equilibration period, 150 μl ^3 H2 O (specific activity 0.3 μCi/ml) was layered across the top of the skin section so that the entire exposed surface was covered. After 5 minutes the aqueous layer was removed and the surface of the skin carefully blotted dry. At t=0.5 hour the saline receptor phase was removed and analyzed for radioactive content by liquid scintillation counting. Skin specimens in which absorption of ^3 H2 O was less than 1.25 μl were considered acceptable.
Subsequently, each test formulation was applied at a target dose of 10 mg (cream) or 10 μl (butter). The cream formulation (partially hydrolyzed cocoa butter emulsion) was applied from the smooth, rounded-tip of a glass rod, the exact amount determined by weighing the rod before and after application. The butter formulation (pure cocoa butter) was first liquified under warm tap water, allowed to cool to room temperature, then applied with a 10 μl positive displacement micropipette prior to resolidifying. At 4, 8, 12, 24, 36 and 48 hours the receptor solution was removed in its entirety, replaced with fresh solution, and a 1 ml aliquot taken and assayed for radioactive content by liquid scintillation counting.
A 1 ml aliquot of each receptor sample containing ^3 H2 O, ^3 H-retinoic acid, or ^3 H-triamcinolone acetonide was placed in a 7 ml glass scintillation vial and gelled by the addition of 5 ml Opti-Fluor (Packard Instrument Co., Meriden, Conn.). These were counted in a Packard Tri-Carb Model 1900CA Liquid scintillation Analyzer equipped with internal standard and automatic quench correction.

[3] = butter (pure cocoa butter), individual skin sections, listed as TRIAMINOLONE ACETONIDE
[4] = butter, average of three donors
[5] = cream (partially hydrolyzed cocoa butter emulsion), individual skin sections, listed as TRIAMINOLONE ACETONIDE

SMILES: CN(C)C=O [Dimethylformamide]
- side effects ([1]; topical use, in words): a sensation of burning and erythema on the skin

SMILES: C[S+](C)[O-] [dimethyl sulfoxide]
- side effects ([1]; topical use, in words): a foul taste and body odor, burning and erythema on the skin; a reduction in the relucency of the lens cortex and tissue necrosis

SMILES: CNC(C)=O [methylacetamide]
- side effects ([1]; in vivo): a sensation of burning and erythema on the skin

SMILES: CC1(C)O[C@@H]2C[C@H]3[C@@H]4CCC5=CC(=O)C=C[C@]5(C)[C@@]4(F)[C@@H](O)C[C@]3(C)[C@]2(C(=O)CO)O1 [triamcinolone acetonide]
- rate of absorption profile / flux ([2]; both cocoa butter formulations, in words): absorption continues to increase at a slow rate; also recorded: relatively high flux rates
- Penet (Total Penetration) [2, 3]: 524.71 and 252.43 and 268.51 and 390.54 and 1505.05 and 2037.47 and 2111.25 and 1993.70 and 1506.22 and 770.57 and 821.16 and 931.82
- % Abs (% Absorbed) [2, 3]: 5.24% and 2.52% and 2.86% and 3.90% and 15.04% and 20.36% and 21.10% and 19.92% and 15.05% and 7.70% and 8.21% and 9.31%
- Rate of absorption, R1 ([2]; butter (pure cocoa butter), sample R1, mid-t 2 h, individual skin sections, listed as TRIAMINOLONE ACETONIDE): 4.39 ng/cm^2 /hr and 1.60 ng/cm^2 /hr and 4.85 ng/cm^2 /hr and 2.94 ng/cm^2 /hr and 5.03 ng/cm^2 /hr and 5.86 ng/cm^2 /hr and 13.93 ng/cm^2 /hr and 14.30 ng/cm^2 /hr and 10.13 ng/cm^2 /hr and 6.97 ng/cm^2 /hr and 3.85 ng/cm^2 /hr and 4.31 ng/cm^2 /hr
- Rate of absorption, R3 ([2]; butter (pure cocoa butter), sample R3, mid-t 10 h, individual skin sections, listed as TRIAMINOLONE ACETONIDE): 4.10 ng/cm^2 /hr and 1.98 ng/cm^2 /hr and 3.21 ng/cm^2 /hr and 1.85 ng/cm^2 /hr and 39.10 ng/cm^2 /hr and 54.60 ng/cm^2 /hr and 49.52 ng/cm^2 /hr and 41.58 ng/cm^2 /hr and 31.25 ng/cm^2 /hr and 11.42 ng/cm^2 /hr and 13.09 ng/cm^2 /hr and 17.61 ng/cm^2 /hr
- Rate of absorption, R4 ([2]; butter (pure cocoa butter), sample R4, mid-t 18 h, individual skin sections, listed as TRIAMINOLONE ACETONIDE): 10.64 ng/cm^2 /hr and 4.64 ng/cm^2 /hr and 5.65 ng/cm^2 /hr and 6.96 ng/cm^2 /hr and 41.81 ng/cm^2 /hr and 61.91 ng/cm^2 /hr and 60.58 ng/cm^2 /hr and 63.34 ng/cm^2 /hr and 42.50 ng/cm^2 /hr and 16.59 ng/cm^2 /hr and 19.25 ng/cm^2 /hr and 21.60 ng/cm^2 /hr
- Rate of absorption, R5 ([2]; butter (pure cocoa butter), sample R5, mid-t 30 h, individual skin sections, listed as TRIAMINOLONE ACETONIDE): 16.77 ng/cm^2 /hr and 7.47 ng/cm^2 /hr and 7.89 ng/cm^2 /hr and 11.61 ng/cm^2 /hr and 44.77 ng/cm^2 /hr and 55.96 ng/cm^2 /hr and 68.48 ng/cm^2 /hr and 56.67 ng/cm^2 /hr and 44.03 ng/cm^2 /hr and 24.96 ng/cm^2 /hr and 28.20 ng/cm^2 /hr and 30.50 ng/cm^2 /hr
- Rate of absorption, R6 ([2]; butter (pure cocoa butter), sample R6, mid-t 42 h, individual skin sections, listed as TRIAMINOLONE ACETONIDE): 23.72 ng/cm^2 /hr and 12.43 ng/cm^2 /hr and 12.16 ng/cm^2 /hr and 19.97 ng/cm^2 /hr and 48.08 ng/cm^2 /hr and 65.20 ng/cm^2 /hr and 60.71 ng/cm^2 /hr and 62.32 ng/cm^2 /hr and 49.91 ng/cm^2 /hr and 30.50 ng/cm^2 /hr and 30.09 ng/cm^2 /hr and 34.64 ng/cm^2 /hr
- Total Penetration [2, 4]: 1094.29
- Rate of absorption, R1 ([2]; butter, R1, mid-t 2 h, average of three donors): 6.52 ng/cm^2 /hr
- Rate of absorption, R3 ([2]; butter, R3, mid-t 10 h, average of three donors): 22.44 ng/cm^2 /hr
- Rate of absorption, R4 ([2]; butter, R4, mid-t 18 h, average of three donors): 29.62 ng/cm^2 /hr
- Rate of absorption, R5 ([2]; butter, R5, mid-t 30 h, average of three donors): 33.11 ng/cm^2 /hr
- Rate of absorption, R6 ([2]; butter, R6, mid-t 42 h, average of three donors): 37.48 ng/cm^2 /hr
- % Absorbed / total absorption [2, 4]: 10.9%
- % Absorbed / total absorption ([2]; butter, average of three donors, listed as Triamcinalone): 10.93%
- rate of absorption, cream versus butter ([2]; comparison of both formulations, in words): The cream formulation gives a slightly higher rate of absorption than the butter
- Penet (Total Penetration) [2, 5]: 254.48 and 668.59 and 249.45 and 118.36 and 2508.36 and 2312.05 and 2871.31 and 2499.51 and 947.51 and 935.57 and 1068.65 and 1271.22
- % Abs (% Absorbed) [2, 5]: 2.49% and 6.22% and 2.57% and 1.23% and 19.85% and 17.85% and 23.91% and 21.77% and 9.37% and 8.49% and 9.22% and 13.72%
- Rate of absorption, R1 ([2]; cream (partially hydrolyzed cocoa butter emulsion), sample R1, mid-t 2 h, individual skin sections, listed as TRIAMINOLONE ACETONIDE): 3.04 ng/cm^2 /hr and 1.67 ng/cm^2 /hr and 5.26 ng/cm^2 /hr and 1.52 ng/cm^2 /hr and 18.29 ng/cm^2 /hr and 17.50 ng/cm^2 /hr and 18.71 ng/cm^2 /hr and 12.90 ng/cm^2 /hr and 4.30 ng/cm^2 /hr and 2.33 ng/cm^2 /hr and 15.97 ng/cm^2 /hr and 3.83 ng/cm^2 /hr
- Rate of absorption, R3 ([2]; cream (partially hydrolyzed cocoa butter emulsion), sample R3, mid-t 10 h, individual skin sections, listed as TRIAMINOLONE ACETONIDE): 3.36 ng/cm^2 /hr and 3.23 ng/cm^2 /hr and 5.64 ng/cm^2 /hr and 0.96 ng/cm^2 /hr and 59.17 ng/cm^2 /hr and 56.60 ng/cm^2 /hr and 68.40 ng/cm^2 /hr and 55.15 ng/cm^2 /hr and 21.00 ng/cm^2 /hr and 18.75 ng/cm^2 /hr and 20.37 ng/cm^2 /hr and 22.71 ng/cm^2 /hr
- Rate of absorption, R4 ([2]; cream (partially hydrolyzed cocoa butter emulsion), sample R4, mid-t 18 h, individual skin sections, listed as TRIAMINOLONE ACETONIDE): 5.74 ng/cm^2 /hr and 12.44 ng/cm^2 /hr and 6.13 ng/cm^2 /hr and 2.07 ng/cm^2 /hr and 63.18 ng/cm^2 /hr and 60.43 ng/cm^2 /hr and 79.96 ng/cm^2 /hr and 72.84 ng/cm^2 /hr and 26.40 ng/cm^2 /hr and 25.54 ng/cm^2 /hr and 27.04 ng/cm^2 /hr and 31.56 ng/cm^2 /hr
- Rate of absorption, R5 ([2]; cream (partially hydrolyzed cocoa butter emulsion), sample R5, mid-t 30 h, individual skin sections, listed as TRIAMINOLONE ACETONIDE): 7.24 ng/cm^2 /hr and 17.67 ng/cm^2 /hr and 6.59 ng/cm^2 /hr and 3.75 ng/cm^2 /hr and 73.13 ng/cm^2 /hr and 69.96 ng/cm^2 /hr and 81.15 ng/cm^2 /hr and 70.51 ng/cm^2 /hr and 30.37 ng/cm^2 /hr and 30.85 ng/cm^2 /hr and 35.59 ng/cm^2 /hr and 41.22 ng/cm^2 /hr
- Rate of absorption, R6 ([2]; cream (partially hydrolyzed cocoa butter emulsion), sample R6, mid-t 42 h, individual skin sections, listed as TRIAMINOLONE ACETONIDE): 10.49 ng/cm^2 /hr and 37.33 ng/cm^2 /hr and 7.93 ng/cm^2 /hr and 5.35 ng/cm^2 /hr and 83.06 ng/cm^2 /hr and 70.37 ng/cm^2 /hr and 91.88 ng/cm^2 /hr and 81.89 ng/cm^2 /hr and 28.80 ng/cm^2 /hr and 30.03 ng/cm^2 /hr and 32.01 ng/cm^2 /hr and 46.16 ng/cm^2 /hr
- Total Penetration ([2]; cream, average of three donors): 1308.76
- % Absorbed / total absorption ([2]; cream, average of three donors): 11.4%
- % Absorbed / total absorption ([2]; cream, average of three donors, listed as Triamcinalone): 11.39%
- difference between partially hydrolyzed cocoa butter emulsion and pure cocoa butter as delivery vehicle ([2]; in words): no appreciable difference
- average absorption ([2]; with cocoa butter and partially hydrolyzed cocoa butter emulsion (both vehicles)): about 11%
